Source: article PMC4774911, “Biochemical Screening of Five Protein Kinases from Plasmodium falciparum against 14,000 Cell-Active Compounds” (PLoS ONE, 2016)
“And” between values parts separate entries of the source, which are not always exact repeats. Equal entries are not always repeated.

How the values were obtained:
Test in all cases: biochemical
Design in all cases: endogenous in cells; host or cells: K562 cell extract; species or system K562 (extract); replicate k of n = 2 (each experiment ID is one independent experiment; two experiment IDs per compound)
Conditions in all cases: read-out: KDapp
MAPK6 = MAPK6 (Homo sapiens, UniProt Q16659)
CDK5 = CDK5 (Homo sapiens, UniProt Q00535)
CHEK1 = molecular target: T1, CHEK1 (Homo sapiens, UniProt O14757)
T1 sequence (O14757 1-476): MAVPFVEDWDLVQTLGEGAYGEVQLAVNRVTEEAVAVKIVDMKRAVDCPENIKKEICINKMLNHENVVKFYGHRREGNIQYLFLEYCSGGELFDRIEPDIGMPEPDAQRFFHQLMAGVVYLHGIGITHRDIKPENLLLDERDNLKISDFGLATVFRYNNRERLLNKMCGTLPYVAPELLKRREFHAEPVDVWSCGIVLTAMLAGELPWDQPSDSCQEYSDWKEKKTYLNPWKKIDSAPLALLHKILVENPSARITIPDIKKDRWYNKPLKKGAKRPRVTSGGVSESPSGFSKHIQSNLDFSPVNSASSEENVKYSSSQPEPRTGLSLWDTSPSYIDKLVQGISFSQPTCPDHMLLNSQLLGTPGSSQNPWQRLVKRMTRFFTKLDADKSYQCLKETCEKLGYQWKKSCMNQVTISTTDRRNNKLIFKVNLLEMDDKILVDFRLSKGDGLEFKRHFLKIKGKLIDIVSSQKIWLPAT

ACVR1 = molecular target: T2, ACVR1 (Homo sapiens, UniProt Q04771)
T2 sequence (Q04771 1-509): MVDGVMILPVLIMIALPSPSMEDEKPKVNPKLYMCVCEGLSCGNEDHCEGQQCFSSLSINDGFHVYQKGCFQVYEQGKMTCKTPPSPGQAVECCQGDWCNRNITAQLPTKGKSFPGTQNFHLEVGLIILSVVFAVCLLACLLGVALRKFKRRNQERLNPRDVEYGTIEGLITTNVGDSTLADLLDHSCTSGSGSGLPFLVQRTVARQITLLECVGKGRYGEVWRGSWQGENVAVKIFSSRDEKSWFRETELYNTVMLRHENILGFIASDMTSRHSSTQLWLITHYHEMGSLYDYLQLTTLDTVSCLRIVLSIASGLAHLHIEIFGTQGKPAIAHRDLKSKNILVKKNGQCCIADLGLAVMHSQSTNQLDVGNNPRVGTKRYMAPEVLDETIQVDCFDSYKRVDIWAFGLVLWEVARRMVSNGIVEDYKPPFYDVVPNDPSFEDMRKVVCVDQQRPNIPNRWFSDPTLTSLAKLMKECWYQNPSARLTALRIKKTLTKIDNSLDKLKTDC

TAOK2 = molecular target: T3, TAOK2 (Homo sapiens, UniProt Q9UL54)
T3 sequence (Q9UL54 1-1235): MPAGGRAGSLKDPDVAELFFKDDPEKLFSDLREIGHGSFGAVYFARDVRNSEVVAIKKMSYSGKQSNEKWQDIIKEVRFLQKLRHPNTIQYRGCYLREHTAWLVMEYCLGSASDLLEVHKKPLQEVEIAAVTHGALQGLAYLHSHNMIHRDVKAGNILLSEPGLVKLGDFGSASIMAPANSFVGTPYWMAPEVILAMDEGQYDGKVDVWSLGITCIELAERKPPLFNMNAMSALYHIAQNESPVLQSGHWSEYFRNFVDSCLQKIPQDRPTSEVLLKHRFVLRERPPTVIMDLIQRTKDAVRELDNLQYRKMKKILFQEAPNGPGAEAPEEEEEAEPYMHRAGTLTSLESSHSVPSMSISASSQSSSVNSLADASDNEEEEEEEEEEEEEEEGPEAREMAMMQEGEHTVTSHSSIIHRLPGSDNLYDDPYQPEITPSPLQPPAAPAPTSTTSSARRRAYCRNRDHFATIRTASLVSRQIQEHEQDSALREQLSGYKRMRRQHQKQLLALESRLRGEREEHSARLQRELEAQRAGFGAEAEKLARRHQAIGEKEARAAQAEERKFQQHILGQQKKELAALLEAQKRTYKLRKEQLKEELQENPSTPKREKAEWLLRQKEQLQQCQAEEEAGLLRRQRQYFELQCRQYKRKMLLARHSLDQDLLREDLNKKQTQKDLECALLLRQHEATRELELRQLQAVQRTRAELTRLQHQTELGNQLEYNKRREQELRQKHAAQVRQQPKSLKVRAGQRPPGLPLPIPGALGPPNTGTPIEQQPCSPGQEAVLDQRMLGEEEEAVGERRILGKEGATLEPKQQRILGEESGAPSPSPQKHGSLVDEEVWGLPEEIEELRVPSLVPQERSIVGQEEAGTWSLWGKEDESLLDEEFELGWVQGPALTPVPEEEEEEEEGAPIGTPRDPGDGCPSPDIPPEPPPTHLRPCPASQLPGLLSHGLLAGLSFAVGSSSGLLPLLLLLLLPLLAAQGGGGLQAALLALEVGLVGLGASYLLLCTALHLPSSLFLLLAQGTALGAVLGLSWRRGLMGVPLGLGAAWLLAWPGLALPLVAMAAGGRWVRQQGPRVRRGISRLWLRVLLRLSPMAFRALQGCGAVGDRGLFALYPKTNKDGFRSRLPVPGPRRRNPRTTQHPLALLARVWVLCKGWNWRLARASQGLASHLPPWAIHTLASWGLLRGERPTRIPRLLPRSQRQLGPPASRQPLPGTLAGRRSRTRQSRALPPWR

Sequence of CDK5 (Q00535 whole entry): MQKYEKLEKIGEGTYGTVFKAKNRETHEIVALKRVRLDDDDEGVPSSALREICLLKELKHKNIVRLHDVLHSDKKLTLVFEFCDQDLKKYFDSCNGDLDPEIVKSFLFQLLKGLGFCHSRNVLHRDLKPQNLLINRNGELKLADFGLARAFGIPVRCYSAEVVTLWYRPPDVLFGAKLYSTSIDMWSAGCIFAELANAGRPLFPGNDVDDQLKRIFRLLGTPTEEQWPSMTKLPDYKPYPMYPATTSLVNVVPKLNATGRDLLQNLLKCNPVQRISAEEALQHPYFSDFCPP
Sequence of MAPK6 (Q16659 whole entry): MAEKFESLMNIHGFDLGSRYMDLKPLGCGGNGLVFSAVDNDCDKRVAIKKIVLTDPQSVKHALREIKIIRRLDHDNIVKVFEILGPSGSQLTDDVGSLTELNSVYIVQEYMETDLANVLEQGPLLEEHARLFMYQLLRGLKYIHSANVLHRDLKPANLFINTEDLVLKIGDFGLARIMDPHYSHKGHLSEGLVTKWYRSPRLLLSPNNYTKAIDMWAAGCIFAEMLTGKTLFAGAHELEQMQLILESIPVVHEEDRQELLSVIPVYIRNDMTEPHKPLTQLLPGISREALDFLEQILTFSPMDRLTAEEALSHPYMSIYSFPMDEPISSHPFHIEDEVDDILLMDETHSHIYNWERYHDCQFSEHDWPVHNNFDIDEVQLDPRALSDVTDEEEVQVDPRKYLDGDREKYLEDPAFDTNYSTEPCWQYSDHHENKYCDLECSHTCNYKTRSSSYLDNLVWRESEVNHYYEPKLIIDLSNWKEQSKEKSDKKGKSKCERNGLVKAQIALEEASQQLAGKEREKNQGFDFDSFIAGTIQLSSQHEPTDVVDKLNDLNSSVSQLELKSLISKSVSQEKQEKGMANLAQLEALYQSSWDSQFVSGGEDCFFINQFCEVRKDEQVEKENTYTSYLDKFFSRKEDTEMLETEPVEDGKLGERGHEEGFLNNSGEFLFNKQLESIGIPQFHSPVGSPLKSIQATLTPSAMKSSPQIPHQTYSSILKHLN

CN(C)CC(O)COc1ccc(Nc2ncc([N+](=O)[O-])c(Nc3ccccc3O)n2)cc1.O=C(O)C(F)(F)F (centres unmarked) [TCMDC-141399]
Kd (MAPK6): 248 nM

CN1CCN(c2ccc(Nc3ncc(C#N)c(Nc4ccccc4C(N)=O)n3)cc2)CC1.Cl [TCMDC-134116]
Kd (CDK5): 40.5 nM and 66.5 nM | Kd (CHEK1): 92 nM | Kd (ACVR1): 2200 nM | Kd (TAOK2): 274 nM
